Source: ChEMBL document CHEMBL5113401, “Novel 1,3,4-oxadiazole chalcogen analogues: Synthesis and cytotoxic activity” (Eur J Med Chem, 2022)
Active and inactive are the calls of the source. No cut-off for these calls is given here.

How the values were obtained:
[1] = tested on: MCF7; test: Antiproliferative activity against human MCF7 cells assessed as inhibition of cell growth incubated for 48 hrs by XTT assay; assay type: functional, cell-based; details: MCF7, 48 h
[2] = tested on: HeLa; test: Antiproliferative activity against human HeLa cells assessed as inhibition of cell growth incubated for 48 hrs by XTT assay; assay type: functional, cell-based
[3] = tested on: PC-3; test: Antiproliferative activity against human PC-3 cells assessed as inhibition of cell growth incubated for 48 hrs by XTT assay; assay type: functional, cell-based; details: PC-3, 48 h
[4] = tested on: HFF-1; test: Cytotoxicity against HFF-1 cells assessed as reduction in cell viability at 1 to 2 uM incubated for 48 hrs by XTT assay; assay type: toxicity, cell-based; details: human, hff-1, 48 h, dose 1-2 µM
[5] = tested on: NB1; test: Cytotoxicity against human NB1 cells immortalized with hTERT plasmid assessed as reduction in cell viability at 1 to 2 uM incubated for 48 hrs by XTT assay; assay type: toxicity, cell-based; details: nb1, 48 h, dose 1-2 µM
[6] = tested on: HeLa; test: Inhibition of colony formation in human HeLa cells at IC50 incubated for 2 weeks with culture medium replacement for every 3 days by crystal violet staining based analysis; assay type: functional, cell-based
[7] = tested on: PC-3; test: Inhibition of colony formation in human PC-3 cells at IC50 incubated for 2 weeks with culture medium replacement for every 3 days by crystal violet staining based analysis; assay type: functional, cell-based
[8] = tested on: HeLa; test: Induction of cell cycle arrest in human HeLa cells assessed as accumulation of cells at G1 phase at 1 uM incubated for 6 hrs by FACS flow cytometry analysis (reference value: 69.94 +/- 1.71 %); assay type: functional
[9] = tested on: HeLa; test: Induction of cell cycle arrest in human HeLa cells assessed as accumulation of cells at S phase at 1 uM incubated for 6 hrs by FACS flow cytometry analysis (reference value: 17.41 +/- 0.96 %); assay type: functional
[10] = tested on: HeLa; test: Induction of cell cycle arrest in human HeLa cells assessed as accumulation of cells at G2/M phase at 1 uM incubated for 6 hrs by FACS flow cytometry analysis (reference value: 12.66 +/- 0.88 %); assay type: functional
[11] = tested on: HeLa; test: Induction of cell cycle arrest in human HeLa cells assessed as accumulation of cells at G1 phase at 1 uM incubated for 18 hrs by FACS flow cytometry analysis (reference value: 69.94 +/- 1.25 %); assay type: functional
[12] = tested on: HeLa; test: Induction of cell cycle arrest in human HeLa cells assessed as accumulation of cells at S phase at 1 uM incubated for 18 hrs by FACS flow cytometry analysis (reference value: 17.41 +/- 1.16 %); assay type: functional
[13] = tested on: HeLa; test: Induction of cell cycle arrest in human HeLa cells assessed as accumulation of cells at G2/M phase at 1 uM incubated for 18 hrs by FACS flow cytometry analysis (reference value: 12.66 +/- 0.92 %); assay type: functional
[14] = tested on: PC-3; test: Induction of cell cycle arrest in human PC-3 cells assessed as accumulation of cells at G1 phase at 1 uM incubated for 6 hrs by FACS flow cytometry analysis (reference value: 44.2 +/- 2.21 %); assay type: functional
[15] = tested on: PC-3; test: Induction of cell cycle arrest in human PC-3 cells assessed as accumulation of cells at S phase at 1 uM incubated for 6 hrs by FACS flow cytometry analysis (reference value: 35.06 +/- 1.85 %); assay type: functional
[16] = tested on: PC-3; test: Induction of cell cycle arrest in human PC-3 cells assessed as accumulation of cells at G2/M phase at 1 uM incubated for 6 hrs by FACS flow cytometry analysis (reference value: 20.74 +/- 1.93 %); assay type: functional
[17] = tested on: PC-3; test: Induction of cell cycle arrest in human PC-3 cells assessed as accumulation of cells at G1 phase at 1 uM incubated for 12 hrs by FACS flow cytometry analysis (reference value: 44.2 +/- 2.01 %); assay type: functional
[18] = tested on: PC-3; test: Induction of cell cycle arrest in human PC-3 cells assessed as accumulation of cells at S phase at 1 uM incubated for 12 hrs by FACS flow cytometry analysis (reference value: 35.06 +/- 1.36 %); assay type: functional
[19] = tested on: PC-3; test: Induction of cell cycle arrest in human PC-3 cells assessed as accumulation of cells at G2/M phase at 1 uM incubated for 12 hrs by FACS flow cytometry analysis (reference value: 20.74 +/- 1.95 %); assay type: functional
[20] = target: T1, Tubulin (Homo sapiens) (UniProt P68371+Q9H4B7+P0DPH7+P68366+Q13509+Q71U36+P04350+Q3ZCM7+P07437+P68363+Q9BQE3+Q6PEY2+Q13885+Q9BVA1+Q9BUF5); test: Inhibition of tubulin polymerization in human HeLa cells assessed as irregular cell morphology at 0.5 uM incubated for 6 hrs by DAPI staining based fluorescence microscopic analysis
[21] = target: T1, Tubulin (Homo sapiens); test: Inhibition of tubulin polymerization in human HeLa cells assessed as aberrations in mitotic spindle and nucleus at 0.5 uM incubated for 6 hrs by DAPI staining based fluorescence microscopic analysis; assay type: cell-based
[22] = target: T1, Tubulin (Homo sapiens); test: Inhibition of tubulin polymerization in human HeLa cells assessed as abnormal microtubule network at 0.5 uM incubated for 6 hrs by DAPI staining based fluorescence microscopic analysis; assay type: cell-based
[23] = tested on: HeLa; test: Induction of apoptosis in human HeLa cells assessed as viable cells at 1 uM incubated for 24 hrs by Annexin V-FITC/7-AAD staining based flow cytometric analysis (reference value: 85.6 +/- 1.061%); assay type: functional; details: read-out: Activity
[24] = tested on: HeLa; test: Induction of apoptosis in human HeLa cells assessed as early apoptotic cells at 1 uM incubated for 24 hrs by Annexin V-FITC/7-AAD staining based flow cytometric analysis (reference value: 2.7 +/- 0.424 %); assay type: functional
[25] = tested on: HeLa; test: Induction of apoptosis in human HeLa cells assessed as late apoptotic cells at 1 uM incubated for 24 hrs by Annexin V-FITC/7-AAD staining based flow cytometric analysis (reference value: 11.1 +/- 0.778 %); assay type: functional
[26] = tested on: HeLa; test: Induction of apoptosis in human HeLa cells assessed as dead cells at 1 uM incubated for 24 hrs by Annexin V-FITC/7-AAD staining based flow cytometric analysis (reference value: 0.6 +/- 0.707 %); assay type: functional

| Compound | IC50 [1] [nM] | IC50 [2] [nM] | IC50 [3] [nM] | Activity [4] | Activity [5] | inhibition [6] | inhibition [7] | Activity [8] [%] | Activity [9] [%] | Activity [10] [%] | Activity [11] [%] | Activity [12] [%] | Activity [13] [%] | Activity [14] [%] | Activity [15] [%] | Activity [16] [%] | Activity [17] [%] | Activity [18] [%] | Activity [19] [%] | inhibition [20] | further results |
| --- | --- | --- | --- | --- | --- | --- | --- | --- | --- | --- | --- | --- | --- | --- | --- | --- | --- | --- | --- | --- | --- |
| Cc1[nH]c2c(c1-c1nnc(-c3ccccc3)s1)Cc1ccccc1-2 | 555 | 324 | 380 | Non-Toxic | Non-Toxic | Active | Active | 26.59 | 40.38 | 33.03 | 22.86 | 20.62 | 56.51 | 44.45 | 21.51 | 34.04 | 15.37 | 23.79 | 60.84 | Active | inhibition [21]: Active; inhibition [22]: Active; viability at 1 µM [23]: 63.8%; Activity [24]: 9.2%; Activity [25]: 22.7%; Activity [26]: 4.3% |
| Cc1[nH]c2c(c1-c1nnc(-c3ccccc3)[se]1)Cc1ccccc1-2 | 176 | 9 | 72 | Non-Toxic | Non-Toxic | Active | Active | 24.24 | 70.25 | 5.51 | 1.06 | 10.36 | 88.58 | 8.76 | 56.26 | 34.99 | 1.01 | 6.68 | 92.31 | Active | inhibition [21]: Active; inhibition [22]: Active; viability at 1 µM [23]: 68%; Activity [24]: 8.9%; Activity [25]: 19.7%; Activity [26]: 3.4% |
| Cc1[nH]c2c(c1-c1nnc(-c3ccccc3Cl)s1)Cc1ccccc1-2 | 468 | 145 | 176 | Non-Toxic | Non-Toxic | Active | Active | 27.25 | 68.91 | 3.84 | 1.49 | 9.52 | 88.99 | 11.13 | 51.2 | 37.68 | 1.71 | 5.55 | 92.74 | Active | inhibition [21]: Active; inhibition [22]: Active; viability at 1 µM [23]: 44.8%; Activity [24]: 31.9%; Activity [25]: 17.4%; Activity [26]: 5.9% |
